Measurements reported in patent US12491209B2, “Dissolved C60 and method of producing dissolved C60” (Innovation for Success, LLC, priority 2019, dated 2025).
In brackets after ≈: the same amount, converted by molar mass. Like-named read-outs stand apart in the source and are kept apart here.

How the values were obtained:
[1] = C60 molecules diffuse out of the body; cited from earlier work
[2] = Solubility of C60 in limonene composition / d-limonene by heating method 200; format: physicochemical
Excerpt: As shown in the flowchart of FIG. 2 and with additional reference to FIG. 3, a method 200 for dissolving C60 304 in a liquid medium that is non-toxic and safe for human consumption includes combining C60 304 with a limonene composition 308 to form a C60 mixture 312. (Block 204). The limonene composition 308 is discussed in connection with the method 200, but the limonene composition 308 may be substituted with orange terpenes or other edible and non-toxic terpenes (or terpene containing liquids). The limonene composition 308 is used over orange terpenes, because the limonene composition 308 has a more pleasant and less bitter taste. In one embodiment, the limonene composition 308 is at least 95% d-limonene by volume, with the remaining 5% including any other liquid, such as limonene, flavoring, fragrances, and the like. In another embodiment, the limonene composition 308 is at least 75% d-limonene with the remaining 25% including any other liquid, such as limonene, flavoring, fragrances, and the like.
At block 204 of the method 200, the C60 304 is pulverized into a powdered form and combined with the liquid limonene composition 308 in a glass vessel (not shown) or any other heat-safe and non-reactive container. Additionally or alternatively, the C60 304 is not pulverized and is added to the limonene composition 308 in granular, chunky, or crystalline state. […]

[3] = per single C60 molecule; cited from earlier work
[4] = cited from earlier work
[5] = system: IgE; conditions: animal models, applied topically; cited from earlier work

Solubility Limit ([2]; solvent d-limonene, results achieved by method 200): 16670 µg/mL (≈ 23100 µM)
SMILES: c12c3c4c5c1c1c6c7c2c2c8c3c3c9c4c4c%10c5c5c1c1c6c6c%11c7c2c2c7c8c3c3c8c9c4c4c9c%10c5c5c1c1c6c6c%11c2c2c7c3c3c8c4c4c9c5c1c1c6c2c3c41 [C60, Buckminsterfullerene]
residence time in the body [1]: about five | dissolution of C60 into the limonene composition without heating ([2]; room temperature 70° F. (21° C.)): does not dissolve to any significant extent | free electrons / methyl radicals absorbed per C60 molecule [3]: up to thirty-four | Solubility Limit ([4]; solvent 1,2-dichlorobenzene): 27000 µg/mL (≈ 37500 µM) | Solubility Limit ([4]; solvent 1-chloronaphthalene): 41000 µg/mL (≈ 56900 µM) | Solubility Limit ([4]; solvent 1-methylnaphthalene): 33000 µg/mL (≈ 45800 µM) | Solubility Limit ([4]; solvent acetone): 1 µg/mL (≈ 1.39 µM) | Solubility Limit ([4]; solvent anisole): 5600 µg/mL (≈ 7770 µM) | Solubility Limit ([4]; solvent benzene): 1700 µg/mL (≈ 2360 µM) | Solubility Limit ([4]; solvent benzonitrile): 410 µg/mL (≈ 569 µM) | Solubility Limit ([4]; solvent carbon disulfide): 7900 µg/mL (≈ 11000 µM) | Solubility Limit ([4]; solvent carbon tetrachloride): 447 µg/mL (≈ 620 µM) | Solubility Limit ([4]; solvent chloroform): 160 µg/mL (≈ 222 µM) | Solubility Limit ([4]; solvent cyclohexane): 36 µg/mL (≈ 50 µM) | Solubility Limit ([4]; solvent decalins): 4600 µg/mL (≈ 6380 µM) | Solubility Limit ([4]; solvent dichloromethane): 260 µg/mL (≈ 361 µM) | Solubility Limit ([4]; solvent ethanol): 1.4 µg/mL (≈ 1.94 µM) | Solubility Limit in mg/ml ([4]; solvent isopropanol): ND (“ND” indicates that C60 in insoluble in the identified solvent) | Solubility Limit in mg/ml ([4]; solvent methanol): ND (“ND” indicates that C60 in insoluble in the identified solvent) | Solubility Limit ([4]; solvent n-decane): 71 µg/mL (≈ 98.5 µM) | Solubility Limit ([4]; solvent n-hexane): 43 µg/mL (≈ 59.7 µM) | Solubility Limit ([4]; solvent n-pentane): 5 µg/mL (≈ 6.94 µM) | Solubility Limit ([4]; solvent octanol): 42.9 µg/mL (≈ 59.5 µM) | Solubility Limit ([4]; solvent tetrachloromethane): 320 µg/mL (≈ 444 µM) | Solubility Limit in mg/ml ([4]; solvent tetrahydrofuran): ND (“ND” indicates that C60 in insoluble in the identified solvent) | Solubility Limit ([4]; solvent tetralin): 16000 µg/mL (≈ 22200 µM) | Solubility Limit ([4]; solvent toluene): 2800 µg/mL (≈ 3890 µM) | Solubility Limit ([4]; solvent water): 1.3e-08 µg/mL (≈ 1.8e-08 µM) | Solubility Limit ([4]; solvent xylene): 5200 µg/mL (≈ 7220 µM) | IgE reduction [5]: reduce IgE significantly
